Test results taken from US11821005B2, “Umbilical cord mesenchymal stem cells (MSCs) and culture method and application thereof” (FOSHAN JINGZHUN JIEN HEALTH MANAGEMENT CONSULTING CO., LTD., priority 2019, dated 2023).
Where a name gives a salt, the structure may show the parent alone.

Test system: umbilical cord MSCs (P3-P5 cells)
Assay: agglomeration of cultured MSCs after adding ligustrazine hydrochloride and/or Shenmai injection (cell graphs)
Type: cell-based, human
Settings: Day 1 after addition, ligustrazine hydrochloride 40-80 mg/L, Shenmai injection 0.5% by volume, FIG. 1 to FIG. 9
Protocol: 2.9 A ligustrazine hydrochloride (GYZZ H20041175 injection of Harbin Medisan Pharmaceutical Co., Ltd., which follows the Second Supplement to the National Standard and can be directly injected into human bodies) and a Shenmai injection (GYZZ Z63021721 of Yunnan Phytopharmaceutical Co., Ltd., which follows the National Drug Standard (Amendment) WS3-B-3428-98-2010 and can be directly injected into human bodies) were added to P3-P5 cells respectively. The concentration of the ligustrazine hydrochloride was 40-80 mg/L and the Shenmai injection was 0.5% by volume. After culture for 24 hours, change the medium and culture for another one week, the cells grown to a fusion degree of 80-90% were collected and digested for tests. The products obtained in the steps are biodetected to eliminate etiological contamination.
The cells were divided into three groups: a. only the Shenmai injection was added; b. only the ligustrazine hydrochloride was added; and c. both the Shenmai injection and the ligustrazine hydrochloride were added for comparison.

Cc1nc(C)c(C)nc1C [ligustrazine hydrochloride]
agglomeration of the cells: improved to some extent
